Read-outs that look alike come from different tables or passages of the source.
Assays:
HeLa cells [1] = tested on: HeLa cells
From the text: (§2) Immunofluorescence images of 20 fields (if not indicated otherwise) were captured through a 20× objective on a PerkinElmer Operetta or the GE IN Cell 6000 using the appropriate filters and light sources for exciting DAPI, Alexafluor 488, and Alexafluor 568 or Alexafluor 647. […] From the DAPI channel, a binary mask was created to exclude individual nuclei smaller than 100 µm^2 and those overlapping the edge of the field.

KDM5B [2] = target: T1, KDM5B (Homo sapiens, UniProt Q9UGL1); assay: High-content immunofluorescence (IF) assay, overexpressed full-length FLAG-tagged KDM in HeLa cells; format: cell-based; set-up: transiently transfecting the full-length FLAG-tagged demethylase (WT) into cells; expressed in transfected cells; host or cells: HeLa; conditions: for Effect on H3K4me3 mark in KDM5B IF assay, in words: HeLa cells transfected with KDM5B; for EC50: HeLa cells overexpressing WT KDM5B, H3K4me3 mark, 24 h, read-out: KDM5B, in cells, EC50 by IF assay (head: IC50)
Procedure: HeLa cells (ATCC) were cultured at 37 °C and 5% CO2 in Minimal Essential Media—Eagle (Sigma-Aldrich, UK) supplemented with 10% heat-inactivated foetal calf serum (FCS) (Gibco, UK), and 1% L-glutaMAX (Gibco, UK) in T75 flasks (Sarstedt, UK) and passaged regularly with TrypLE (Life Technologies, UK) before cells reached confluence. On day 0, 7000 cells per well were plated on a 96-well clear bottom CellCarrier plate (PerkinElmer, UK). The next day the cells were transfected with Lipofectamine 3000 (ThermoFisher Scientific, UK) following the manufacturer’s instructions. Briefly, 0.1 µg of plasmid DNA (encoding for the respective demethylase) and 0.15 µL of Lipofectamine 3000 were diluted in separate tubes containing 5 µL OptiMEM. 0.15 µL of P3000 was added to the tube with the DNA. The two solutions were then mixed gently and allowed to incubate for 5 min at room temperature. Next, the DNA-lipid complex was added to the cells for 4 h at 37 °C and 5% CO2.
Compound dilutions were made in a 96-well PCR plate (Starlab, UK). The culture medium was supplemented with 0.4% DMSO so that the solvent concentration was maintained throughout. Compounds were serially diluted at a 1:2 or 1:3 dilution ratio. Next, the cell culture plate was removed from the incubator and the medium was gently aspirated and replaced with the fresh medium containing diluted compounds.
Then cells were rinsed once with PBS and blocked for 30 min at room temperature using 3% v/v foetal calf serum diluted in PBS.

HeLa cells [3] = assay: Hoechst 33342/Yo-Pro 3/Annexin triple staining, live cell death pattern analysis; format: cell-based
Procedure: Cells exposed to the inhibitors for 24 h were stained with Hoechst 33342 (1 µM), Yo-Pro 3 (1 µM) and Annexin V (0.3 μL per well) for 1 h. Cellular fluorescence was measured using the IN Cell 6000 (GE) using the following set-up parameters: bright-field transmitted light at 50% for 15 ms; Hoechst 33342 was excited by 35-ms exposure(Ex 360–400 nm/Em 410–480 nm), Yo-Pro 3 by 35-ms exposure(Ex 560–580 nm/Em 650–760 nm) and Annexin V (Alexa 488) by 45-ms exposure(Ex 460–490 nm/Em 500–550 nm). All the generated data were analysed using the IN Cell Analyser software, and three categories were distinguished: healthy cells, apoptosis and necrosis—calculated as percentage of each class for every concentration used.

H3K4me3 mark = assay: IF assay of histone mark in HeLa cells treated with cytotoxic agents
H3K27me3 mark = assay: as above
H3K9me2 mark = assay: as above
H3K36me2 mark = assay: as above
HeLa cells [4] = assay: Cell number in the high-content screen (DAPI staining) as measure of toxicity; conditions: concentrations used in the IF assays
From the text: as §2

KDM4C = target: T2, KDM4C (Homo sapiens, UniProt Q9H3R0); assay: AlphaScreen in vitro demethylase assay; format: biochemical; conditions: in vitro KDM assay, Table S3; * likely false positive due to colour quenching; read-out: KDM4C IC50
T2 sequence (Q9H3R0 1-1056): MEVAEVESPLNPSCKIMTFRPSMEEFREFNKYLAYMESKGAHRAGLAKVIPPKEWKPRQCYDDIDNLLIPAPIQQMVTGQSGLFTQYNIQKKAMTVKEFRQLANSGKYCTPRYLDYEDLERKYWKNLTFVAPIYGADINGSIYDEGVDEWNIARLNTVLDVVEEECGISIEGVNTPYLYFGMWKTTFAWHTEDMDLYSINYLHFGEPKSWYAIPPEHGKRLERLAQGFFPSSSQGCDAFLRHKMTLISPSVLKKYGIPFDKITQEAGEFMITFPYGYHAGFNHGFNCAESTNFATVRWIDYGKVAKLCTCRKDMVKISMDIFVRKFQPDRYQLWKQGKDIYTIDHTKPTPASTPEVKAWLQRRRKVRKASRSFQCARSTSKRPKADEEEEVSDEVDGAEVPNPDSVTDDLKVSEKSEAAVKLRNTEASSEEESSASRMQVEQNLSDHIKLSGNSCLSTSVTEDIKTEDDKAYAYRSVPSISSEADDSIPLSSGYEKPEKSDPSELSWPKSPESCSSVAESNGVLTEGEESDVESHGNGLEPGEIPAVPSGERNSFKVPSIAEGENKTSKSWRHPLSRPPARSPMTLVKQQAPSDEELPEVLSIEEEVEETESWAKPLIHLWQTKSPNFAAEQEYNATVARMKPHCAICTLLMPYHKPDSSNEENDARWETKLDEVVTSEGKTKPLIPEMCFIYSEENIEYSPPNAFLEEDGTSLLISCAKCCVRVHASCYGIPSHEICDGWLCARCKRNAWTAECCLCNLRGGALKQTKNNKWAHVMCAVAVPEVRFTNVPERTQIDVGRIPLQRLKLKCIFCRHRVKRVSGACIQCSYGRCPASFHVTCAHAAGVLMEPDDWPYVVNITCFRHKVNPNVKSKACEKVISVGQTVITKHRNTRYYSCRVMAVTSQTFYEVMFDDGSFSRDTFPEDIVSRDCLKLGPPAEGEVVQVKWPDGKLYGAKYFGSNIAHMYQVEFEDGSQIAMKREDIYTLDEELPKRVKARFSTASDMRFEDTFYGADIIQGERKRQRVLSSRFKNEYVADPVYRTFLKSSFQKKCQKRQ
Procedure: (§1) IC50 values were determined as previously described. The following amendments were made to the protocol for carrying out 2-OG competition assays.

KDM5B [5] = target: T1, KDM5B; assay: AlphaScreen in vitro demethylase assay; format: biochemical
Procedure: as §1

KDM6B = KDM6B (Homo sapiens, UniProt O15054); assay: AlphaScreen in vitro demethylase assay; format: biochemical; conditions: in vitro KDM assay, Table S3; * likely false positive due to colour quenching; read-out: KDM6B IC50
Procedure: as §1

KDM5B [6] = target: T1, KDM5B; set-up: method as in PMID 26741168; conditions: AlphaScreen; in vitro biochemical profiling previously reported; cited from earlier work
KDM3A = target: T3, KDM3A (Homo sapiens, UniProt Q9Y4C1); assay: AlphaScreen in vitro demethylase assay; format: biochemical; conditions: IC50 ± SD (number of replicates)
T3 sequence (Q9Y4C1 1-1321): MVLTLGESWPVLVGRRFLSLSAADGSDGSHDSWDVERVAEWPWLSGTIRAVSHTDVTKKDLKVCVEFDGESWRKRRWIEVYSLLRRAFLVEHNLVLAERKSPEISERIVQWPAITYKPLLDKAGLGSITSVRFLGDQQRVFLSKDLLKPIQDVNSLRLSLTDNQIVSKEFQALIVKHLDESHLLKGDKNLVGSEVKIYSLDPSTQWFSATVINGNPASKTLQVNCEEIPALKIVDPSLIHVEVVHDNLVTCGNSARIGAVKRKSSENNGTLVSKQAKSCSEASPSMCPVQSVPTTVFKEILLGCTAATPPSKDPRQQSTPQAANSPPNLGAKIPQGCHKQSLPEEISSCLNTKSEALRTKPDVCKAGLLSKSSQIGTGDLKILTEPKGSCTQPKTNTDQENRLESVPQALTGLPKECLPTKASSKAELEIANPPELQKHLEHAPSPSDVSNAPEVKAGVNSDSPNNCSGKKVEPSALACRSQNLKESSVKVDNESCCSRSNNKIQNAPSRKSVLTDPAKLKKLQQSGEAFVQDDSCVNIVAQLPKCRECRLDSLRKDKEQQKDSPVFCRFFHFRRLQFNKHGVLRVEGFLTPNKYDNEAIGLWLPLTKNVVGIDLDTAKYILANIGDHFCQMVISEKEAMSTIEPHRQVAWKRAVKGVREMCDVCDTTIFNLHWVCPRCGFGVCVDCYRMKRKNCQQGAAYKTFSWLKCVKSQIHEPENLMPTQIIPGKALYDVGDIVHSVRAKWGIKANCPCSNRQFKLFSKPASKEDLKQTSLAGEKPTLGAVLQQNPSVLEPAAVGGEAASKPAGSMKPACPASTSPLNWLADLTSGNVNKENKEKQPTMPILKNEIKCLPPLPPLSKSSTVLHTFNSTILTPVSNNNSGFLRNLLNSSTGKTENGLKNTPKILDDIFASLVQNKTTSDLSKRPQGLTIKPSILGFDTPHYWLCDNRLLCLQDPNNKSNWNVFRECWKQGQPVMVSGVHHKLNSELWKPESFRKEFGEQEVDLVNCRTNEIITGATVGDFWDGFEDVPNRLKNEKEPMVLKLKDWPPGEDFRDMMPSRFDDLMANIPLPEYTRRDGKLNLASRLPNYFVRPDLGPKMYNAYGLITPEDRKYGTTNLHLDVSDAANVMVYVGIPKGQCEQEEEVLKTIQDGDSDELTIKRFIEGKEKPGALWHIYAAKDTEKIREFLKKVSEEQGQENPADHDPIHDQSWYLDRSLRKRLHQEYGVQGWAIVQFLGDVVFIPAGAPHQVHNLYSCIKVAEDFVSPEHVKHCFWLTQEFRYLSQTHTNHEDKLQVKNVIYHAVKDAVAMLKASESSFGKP
Procedure: as §1

KDM5C = KDM5C (Homo sapiens, UniProt P41229); assay: AlphaScreen in vitro demethylase assay; format: biochemical; conditions: IC50 ± SD (number of replicates)
Procedure: as §1

[7] = in vitro KDM assay, Table S3, * likely false positive due to colour quenching, read-out: KDM5B IC50
[8] = HeLa cells, 24 h, dose-dependent

T1 sequence (Q9UGL1 whole entry): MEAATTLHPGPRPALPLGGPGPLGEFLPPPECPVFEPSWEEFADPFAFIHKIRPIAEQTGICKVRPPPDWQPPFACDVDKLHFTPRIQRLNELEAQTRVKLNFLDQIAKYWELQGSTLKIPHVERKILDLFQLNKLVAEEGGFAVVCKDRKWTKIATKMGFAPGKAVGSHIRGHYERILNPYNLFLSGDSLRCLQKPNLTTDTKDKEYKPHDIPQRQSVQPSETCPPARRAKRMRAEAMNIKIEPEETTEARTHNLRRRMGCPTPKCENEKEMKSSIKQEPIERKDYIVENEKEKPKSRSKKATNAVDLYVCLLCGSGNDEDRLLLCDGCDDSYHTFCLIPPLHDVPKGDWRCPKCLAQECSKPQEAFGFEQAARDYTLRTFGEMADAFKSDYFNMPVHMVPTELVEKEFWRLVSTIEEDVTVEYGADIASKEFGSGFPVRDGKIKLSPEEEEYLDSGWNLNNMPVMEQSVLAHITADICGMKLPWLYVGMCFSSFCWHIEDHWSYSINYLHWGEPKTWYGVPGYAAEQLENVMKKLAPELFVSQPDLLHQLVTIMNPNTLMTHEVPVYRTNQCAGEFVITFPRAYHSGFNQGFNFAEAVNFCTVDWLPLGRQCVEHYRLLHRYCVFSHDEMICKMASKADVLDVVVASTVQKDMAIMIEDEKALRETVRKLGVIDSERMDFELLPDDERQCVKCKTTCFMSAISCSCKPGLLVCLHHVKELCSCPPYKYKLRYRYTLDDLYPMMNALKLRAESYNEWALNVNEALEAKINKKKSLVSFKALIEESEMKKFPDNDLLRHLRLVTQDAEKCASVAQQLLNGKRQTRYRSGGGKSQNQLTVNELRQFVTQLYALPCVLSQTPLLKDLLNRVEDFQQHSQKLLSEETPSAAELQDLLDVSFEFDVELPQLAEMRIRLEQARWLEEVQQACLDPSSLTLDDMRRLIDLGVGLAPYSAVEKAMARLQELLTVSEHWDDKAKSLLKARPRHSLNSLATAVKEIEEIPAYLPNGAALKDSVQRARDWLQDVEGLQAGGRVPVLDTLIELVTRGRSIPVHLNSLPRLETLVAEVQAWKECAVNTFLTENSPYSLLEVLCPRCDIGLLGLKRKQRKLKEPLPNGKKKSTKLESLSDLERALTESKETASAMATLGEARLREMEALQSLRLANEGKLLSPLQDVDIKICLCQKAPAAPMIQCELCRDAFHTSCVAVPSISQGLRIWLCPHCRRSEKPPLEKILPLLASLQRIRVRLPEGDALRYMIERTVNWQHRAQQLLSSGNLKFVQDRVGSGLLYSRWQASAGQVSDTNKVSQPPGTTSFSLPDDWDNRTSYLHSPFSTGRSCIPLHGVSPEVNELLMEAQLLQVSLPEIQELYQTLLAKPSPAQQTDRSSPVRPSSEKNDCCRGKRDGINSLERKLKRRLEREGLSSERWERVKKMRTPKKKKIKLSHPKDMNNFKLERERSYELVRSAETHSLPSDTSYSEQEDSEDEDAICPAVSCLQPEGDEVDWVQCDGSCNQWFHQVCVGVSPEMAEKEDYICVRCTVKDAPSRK
Sequence of KDM6B (O15054 whole entry): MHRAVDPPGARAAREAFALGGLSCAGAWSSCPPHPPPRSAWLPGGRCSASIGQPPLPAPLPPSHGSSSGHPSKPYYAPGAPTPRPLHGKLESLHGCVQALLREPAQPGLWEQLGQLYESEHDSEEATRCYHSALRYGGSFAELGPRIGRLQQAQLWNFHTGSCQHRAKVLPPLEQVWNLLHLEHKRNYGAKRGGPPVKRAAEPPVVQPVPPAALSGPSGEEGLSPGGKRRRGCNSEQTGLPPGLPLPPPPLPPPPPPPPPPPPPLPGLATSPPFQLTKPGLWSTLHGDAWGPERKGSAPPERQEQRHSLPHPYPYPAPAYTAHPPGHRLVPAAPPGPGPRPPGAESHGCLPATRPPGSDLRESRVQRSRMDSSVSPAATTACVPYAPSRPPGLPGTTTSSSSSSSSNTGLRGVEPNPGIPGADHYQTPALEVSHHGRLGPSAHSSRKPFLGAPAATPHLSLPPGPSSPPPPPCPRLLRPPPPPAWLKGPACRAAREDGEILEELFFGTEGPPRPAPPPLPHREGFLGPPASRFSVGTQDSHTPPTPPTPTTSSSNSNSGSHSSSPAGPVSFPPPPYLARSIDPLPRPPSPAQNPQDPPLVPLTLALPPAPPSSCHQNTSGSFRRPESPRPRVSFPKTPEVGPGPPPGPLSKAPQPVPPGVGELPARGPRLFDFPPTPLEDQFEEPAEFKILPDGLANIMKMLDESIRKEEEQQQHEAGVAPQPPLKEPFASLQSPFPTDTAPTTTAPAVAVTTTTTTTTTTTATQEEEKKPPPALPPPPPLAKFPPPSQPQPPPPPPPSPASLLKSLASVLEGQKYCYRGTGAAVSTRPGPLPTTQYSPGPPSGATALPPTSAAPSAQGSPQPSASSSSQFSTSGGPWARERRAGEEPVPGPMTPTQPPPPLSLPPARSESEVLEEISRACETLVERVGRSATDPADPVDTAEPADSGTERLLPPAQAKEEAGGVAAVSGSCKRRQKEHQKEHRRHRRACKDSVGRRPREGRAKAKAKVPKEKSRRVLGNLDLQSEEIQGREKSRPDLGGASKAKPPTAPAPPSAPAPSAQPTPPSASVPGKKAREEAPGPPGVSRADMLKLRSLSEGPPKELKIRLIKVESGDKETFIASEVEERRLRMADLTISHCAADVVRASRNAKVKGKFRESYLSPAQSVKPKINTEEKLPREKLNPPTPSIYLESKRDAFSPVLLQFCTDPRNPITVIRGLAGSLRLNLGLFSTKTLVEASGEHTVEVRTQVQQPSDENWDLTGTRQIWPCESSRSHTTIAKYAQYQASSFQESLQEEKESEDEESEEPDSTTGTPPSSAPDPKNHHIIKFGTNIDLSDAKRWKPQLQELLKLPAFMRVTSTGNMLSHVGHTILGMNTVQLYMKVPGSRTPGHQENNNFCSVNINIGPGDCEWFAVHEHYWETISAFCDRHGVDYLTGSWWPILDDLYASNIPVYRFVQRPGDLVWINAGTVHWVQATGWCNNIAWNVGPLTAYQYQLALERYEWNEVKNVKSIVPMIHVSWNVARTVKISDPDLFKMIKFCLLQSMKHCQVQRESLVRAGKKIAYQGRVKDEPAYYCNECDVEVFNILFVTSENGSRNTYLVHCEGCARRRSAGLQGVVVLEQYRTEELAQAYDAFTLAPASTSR
Sequence of KDM5C (P41229 whole entry): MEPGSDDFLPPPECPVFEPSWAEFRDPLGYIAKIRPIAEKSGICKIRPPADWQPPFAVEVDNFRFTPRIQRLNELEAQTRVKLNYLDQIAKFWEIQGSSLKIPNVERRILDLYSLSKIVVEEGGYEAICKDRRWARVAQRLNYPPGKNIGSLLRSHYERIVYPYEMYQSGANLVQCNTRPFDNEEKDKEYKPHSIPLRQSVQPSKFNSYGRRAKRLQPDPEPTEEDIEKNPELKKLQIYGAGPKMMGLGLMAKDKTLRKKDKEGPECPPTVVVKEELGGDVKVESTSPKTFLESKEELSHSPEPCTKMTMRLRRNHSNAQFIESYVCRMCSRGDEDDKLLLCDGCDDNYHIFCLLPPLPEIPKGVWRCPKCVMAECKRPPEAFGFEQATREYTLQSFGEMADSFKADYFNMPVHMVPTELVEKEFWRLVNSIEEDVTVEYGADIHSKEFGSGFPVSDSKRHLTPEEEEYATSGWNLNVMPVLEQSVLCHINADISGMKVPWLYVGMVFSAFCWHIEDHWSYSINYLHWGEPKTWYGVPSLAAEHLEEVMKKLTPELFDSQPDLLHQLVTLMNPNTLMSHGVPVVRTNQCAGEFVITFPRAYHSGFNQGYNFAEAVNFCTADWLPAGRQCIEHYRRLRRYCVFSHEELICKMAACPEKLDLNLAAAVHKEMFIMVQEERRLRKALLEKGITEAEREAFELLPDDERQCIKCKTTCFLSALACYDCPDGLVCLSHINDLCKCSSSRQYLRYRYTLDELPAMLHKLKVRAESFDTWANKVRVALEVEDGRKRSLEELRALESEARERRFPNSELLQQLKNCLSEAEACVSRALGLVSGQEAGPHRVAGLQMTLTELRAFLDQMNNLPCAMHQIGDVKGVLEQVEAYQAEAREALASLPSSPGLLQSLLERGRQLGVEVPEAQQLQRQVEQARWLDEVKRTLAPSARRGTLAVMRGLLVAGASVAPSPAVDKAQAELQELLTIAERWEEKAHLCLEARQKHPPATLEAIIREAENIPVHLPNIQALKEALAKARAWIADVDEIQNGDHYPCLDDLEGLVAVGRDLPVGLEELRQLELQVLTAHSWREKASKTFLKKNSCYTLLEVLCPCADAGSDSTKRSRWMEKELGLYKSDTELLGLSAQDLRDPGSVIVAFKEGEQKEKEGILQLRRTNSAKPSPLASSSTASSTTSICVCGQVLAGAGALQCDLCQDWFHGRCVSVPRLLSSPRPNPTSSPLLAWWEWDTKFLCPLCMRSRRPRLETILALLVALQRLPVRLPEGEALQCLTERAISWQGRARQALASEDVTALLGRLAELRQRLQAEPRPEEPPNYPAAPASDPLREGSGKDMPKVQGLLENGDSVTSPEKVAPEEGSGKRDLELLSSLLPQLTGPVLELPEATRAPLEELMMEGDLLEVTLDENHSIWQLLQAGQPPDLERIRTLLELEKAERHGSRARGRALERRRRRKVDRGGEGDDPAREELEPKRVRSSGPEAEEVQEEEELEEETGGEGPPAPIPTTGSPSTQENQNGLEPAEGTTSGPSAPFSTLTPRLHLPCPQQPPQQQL

CCOC(=O)CCNc1cc(N2CCc3ccccc3CC2)nc(-c2ccccn2)n1 [GSK-J4]
Toxicity as measured by cell count (number of cells, DAPI staining) (HeLa cells [1]): only minor toxicity at the highest concentrations used
Effect on H3K4me3 mark in KDM5B IF assay, in words (KDM5B [2]): increase of the H3K4me3 mark

COc1cccc2c1C(=O)c1c(O)c3c(c(O)c1C2=O)C[C@@](O)(C(=O)CO)C[C@@H]3O[C@H]1C[C@H](N)[C@H](O)[C@H](C)O1 [Doxorubicin, doxorubicin]
Cell death in triple staining (healthy, apoptotic, necrotic), in words (HeLa cells [3]): predominant apoptotic staining
Effect on H3K4me3 levels, in words (H3K4me3 mark): no effect on this mark
Effect on H3K27me3 mark, in words (H3K27me3 mark): profound effect
Effect on H3K9me2 levels, in words (H3K9me2 mark): some increase
Effect on H3K36me2 levels, in words (H3K36me2 mark): only marginally affected
Toxicity as measured by cell count (number of cells, DAPI staining) (HeLa cells [4]): induced cell death

CC(=O)O[C@H]1C(=O)[C@@]2(C)[C@H]([C@H](OC(=O)c3ccccc3)[C@]3(O)C[C@H](OC(=O)[C@H](O)[C@@H](NC(=O)c4ccccc4)c4ccccc4)C(C)=C1C3(C)C)[C@]1(OC(C)=O)CO[C@@H]1C[C@@H]2O [Paclitaxel, paclitaxel]
IC50 (KDM4C): > 100 µM
IC50 (KDM5B [5]; [7]): > 100 µM
IC50 (KDM6B): > 100 µM
Cell death in triple staining (healthy, apoptotic, necrotic), in words (HeLa cells [3]): predominant apoptotic staining
Effect on H3K4me3 levels, in words (H3K4me3 mark): dose-dependent increase of H3K4me3
Effect on H3K27me3 mark, in words (H3K27me3 mark): profound effect
Effect on H3K9me2 levels, in words (H3K9me2 mark): not affected
Effect on H3K36me2 levels, in words (H3K36me2 mark): only marginally affected
Toxicity as measured by cell count (number of cells, DAPI staining) (HeLa cells [4]): induced cell death

O=C(O)c1ccc(O)c2ncccc12 [IOX1]
Cell death in triple staining (healthy, apoptotic, necrotic), in words (HeLa cells [3]; [8]): little to no cell toxicity
IC50 (KDM5B [6]): 20.6 ± 9 µM
Toxicity as measured by cell count (number of cells, DAPI staining) (HeLa cells [4]): only observed cell toxicity at high concentrations
EC50 (KDM5B [2]): 62 µM
Effect on H3K4me3 mark in KDM5B IF assay, in words (KDM5B [2]): dose-dependent increase of H3K4me3

Clc1ccc(N/N=C(/c2ccccc2)c2ccccn2)nc1 [JIB-04 Z]
IC50 (KDM3A): > 10 µM
IC50 (KDM5B [5]; AlphaScreen, IC50 ± SD (number of replicates), read-out: KDM5B IC50, in vitro): 7.01 µM
IC50 (KDM5C): > 10 µM
EC50 (KDM5B [2]): > 100 µM

CN[C@@H]1C[C@H]2O[C@@](C)([C@@H]1OC)n1c3ccccc3c3c4c(c5c6ccccc6n2c5c31)C(=O)NC4 [Staurosporine, staurosporine]
IC50 (KDM4C): > 100 µM
IC50 (KDM5B [5]; [7]): > 100 µM
IC50 (KDM6B): > 100 µM
Cell death in triple staining (healthy, apoptotic, necrotic), in words (HeLa cells [3]; [8]): predominant apoptotic staining

CCOC(=O)CCNc1cc(N2CCc3ccccc3CC2)nc(-c2cccnc2)n1 [GSK-J5]
necrotic cells (HeLa cells [3]; HeLa cells, 50 µM): about 60%
Toxicity as measured by cell count (number of cells, DAPI staining) (HeLa cells [4]): only minor toxicity at the highest concentrations used

Reference: article PMC5333395, “Assessing histone demethylase inhibitors in cells: lessons learned” (Epigenetics & Chromatin, 2017)
